Data taken from EPA's ToxValDB 9.5 (doi:10.2903/j.efsa.2009.182r).

What was measured:
[1] = system: Rattus norvegicus; details: for NOAEL: inhalation
[2] = system: Apis mellifera; details: acute; duration: 48 hours; oral; unspecified; mortality
[3] = system: Coturnix japonica; details: acute; oral; mortality
[4] = system: Oncorhynchus mykiss; details: acute; duration: 96 hours; mortality
[5] = system: Tagia sp.; details: acute; duration: 14 days; mortality
[6] = chronic, duration: 2 years, no effects
[7] = reproduction developmental, mortality
[8] = subchronic, duration: 90 days, no effects

Row | SMILES | NOAEL [1, 6] [mg/kg-day] | NOAEL ([1]; developmental, duration: 10 days, development) [mg/kg-day] | NOAEL [1, 7] [mg/kg-day] | NOAEL ([1]; subchronic, duration: 90 days, mortality) [mg/kg-day] | NOAEL [1, 8] [mg/kg-day] | LD50 [2] [µg/piece] | LD50 [3] [mg/kg-day] | LC50 [4] [ng/mL] | LD50 ([1]; acute, oral, mortality) [mg/kg-day] | LC50 [5] [mg/kg]
1 | P [Phosphine] | 1.1 | 1.9 | 1.9 | 1.11 | 1.1 | – | – | – | – | –
2 | [Al+3].[P-3] [Aluminum phosphide] | 1.1 | – | 1.9 | – | 1.1 | 0.24 | 49 | 4.68 | 8.7 | 664
